Results published in US20020123037A1, “Selection Procedure Using Prodrug/Enzyme System” (Cobra Therapeutics Limited, priority 1999, published 2002).
Values joined by “and” are separate entries in the source; they are usually repeats but may differ in a detail not shown here. Equal entries are not always repeated.

How the values were obtained:
[1] = test system: E.coli C600Hfl lysogens of λJG3J1 and λJG16C1; test: Induction of phage release from 5:1 mixture of lysogens JG3J1 (control) and JG16C1 (ntr) by CB1954; assay type: cell-based; conditions: for #### (Control phage in the section above) / No. cols / Phage particles / No. ntr phage (colonies containing λJG16C1 of colonies screened by PCR): 500 μM CB1954
Description: E.coli C600Hfl (obtained from Promega Cat No. D3131) were infected with λJG3J1 or λJG16C1 for 15min at 37 °C and spread onto kanamycin (30µg/ml) selective Lennox agar (LA) plates to select for lysogens. A single colony of each was picked, and the lysogenic bacteria were then grown aerobically at 37 °C to mid log phase in LB containing 0.1mM IPTG. Approximately 4.8 x 10^8 λJG3J1 lysogens and 9 x 10^7 λ JG16C1 lysogens (as estimated from the optical density; approximate 5:1 ratio without:with nitroreductase) were mixed in 5ml LB containing 0.1mM IPTG in the presence or absence of 500 µM CB1954 (provided by Cobra Therapeutics and diluted from a 50mM stock solution in 2:7 N-methyl pyrrolidinone:PEG300). The mixtures of bacterial lysogens were incubated at 37 °C with shaking and 50µl samples removed at intervals between 15 and 185 minutes after mixing.
Each sample was immediately mixed with 1ml LB and 100µl chloroform to kill any bacteria, briefly centrifuged to pellet debris, and the supernatant diluted 1 in 10 before using 10 µl to infect E. coli C600Hfl and plating onto LA containing kanamycin, to select for bacteria lysogenised by bacteriophage in the sample.
The number of colonies growing from the samples was counted the following day, and indicates the total number of bacteriophage present in the sample.
The polymerase chain reaction (PCR) was used to determine whether the bacteria in each colony contained λJG3J1 or λJG16C1. A number of individual colonies were picked at random from the most relevant plates and transferred to a 200µl PCR tube, lysed in a microwave for 2min and 35µl of PCR reaction mix [16mM (NH4)2SO4, 67mM Tris-Cl (pH 8.8 at 25 °C), 0.01% Tween-20 (Bioline), 0.2mM each dNTP, 1.5mM MgCl2, 1 U Biotaq (Bioline)] plus 0.25 µM primersJ
A tube containing reaction mix but no bacteria was used as a control to check for contamination of PCR reaction components. After 30 cycles (94 °C/5min; then 30x 94 °C/45s, 55 °C/45s, 72 °C/160s; then 72 °C/10min) the PCR products were analysed by gel electrophoresis to determine the product size. Lysogens containing λJG16C1 expressing ntr gave a 1.1kb product whereas λJG3J1 lysogens gave a 0.4kb product. All the colonies gave one or the other of these two bands but not both, and the negative control confirmed the absence of contamination in the PCR.

[2] = biological target: wild type nitroreductase (Escherichia coli, UniProt P38489); conditions: CB1954 as substrate, reference 9, cited from earlier work
Sequence of wild type nitroreductase (P38489 whole entry): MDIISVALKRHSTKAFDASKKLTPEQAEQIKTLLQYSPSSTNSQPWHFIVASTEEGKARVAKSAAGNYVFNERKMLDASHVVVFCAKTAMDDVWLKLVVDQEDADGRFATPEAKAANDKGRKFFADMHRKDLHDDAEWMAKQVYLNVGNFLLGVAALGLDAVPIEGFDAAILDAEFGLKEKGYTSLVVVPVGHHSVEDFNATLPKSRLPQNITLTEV

[3] = test system: colorectal, pancreatic and ovarian tumour cell lines; conditions: retroviral transfer of nitroreductase expression cassette; McNeish et al., 1998; Green et al., 1996; cited from earlier work
[4] = test system: nitroreductase-expressing tumours; conditions: mice harbouring nitroreductase-expressing tumours; McNeish et al., 1998; cited from earlier work
[5] = test system: mammalian DT diaphorases; conditions: cited from earlier work
[6] = 15 min after mixing & induction
[7] = 30 min after mixing & induction
[8] = 45 min after mixing & induction
[9] = 60 min after mixing & induction
[10] = 75 min after mixing & induction
[11] = 90 min after mixing & induction
[12] = 125 min after mixing & induction
[13] = 155 min after mixing & induction
[14] = 185 min after mixing & induction

## NC(=O)c1cc(N2CC2)c([N+](=O)[O-])cc1[N+](=O)[O-] [CB1954, 5-[aziridin-1-yl]-2,4-dinitrobenzamide]
[1]; 15 min, no PCR typing
  #### (Control phage in the section above): 0.6
[1]; [6]
  No. cols: 3
  Phage particles: 0.6 10^−6 per ml
[1]; 30 min, no PCR typing
  #### (Control phage in the section above): 1
[1]; [7]
  No. cols: 5
  Phage particles: 1 10^−6 per ml
[1]; 45 min, no PCR typing
  #### (Control phage in the section above): 2.2
[1]; [8]
  No. cols: 11
  Phage particles: 2.2 10^−6 per ml
[1]; 60 min
  #### (Control phage in the section above): 3.82
  No. ntr phage (colonies containing λJG16C1 of colonies screened by PCR): 1 of 11
[1]; [9]
  No. cols: 21
  Phage particles: 4.2 10^−6 per ml
[1]; 75 min
  #### (Control phage in the section above): 4.79
  No. ntr phage (colonies containing λJG16C1 of colonies screened by PCR): 6 of 19
[1]; [10]
  No. cols: 35
  Phage particles: 7 10^−6 per ml
[1]; 90 min
  #### (Control phage in the section above): 9.6
  No. ntr phage (colonies containing λJG16C1 of colonies screened by PCR): 18/30 and 18 of 30
[1]; [11]
  No. cols: 120
  Phage particles: 24 10^−6 per ml
[1]; 125 min
  #### (Control phage in the section above): 33.4
  No. ntr phage (colonies containing λJG16C1 of colonies screened by PCR): 11 of 23
[1]; [12]
  No. cols: 320
  Phage particles: 64 10^−6 per ml
[1]; 155 min
  #### (Control phage in the section above): 54.7
  No. ntr phage (colonies containing λJG16C1 of colonies screened by PCR): 6 of 25
[1]; [13]
  No. cols: 360
  Phage particles: 72 10^−6 per ml
[1]; 185 min
  #### (Control phage in the section above): 72
  No. ntr phage (colonies containing λJG16C1 of colonies screened by PCR): 0 of 10
[1]; [14]
  No. cols: 360
  Phage particles: 72 10^−6 per ml
[1]; 90 minute time point, 60% versus 16% at mixing
  enrichment of λJG16C1: ~ 4 fold
[1]; culture exposed to CB1954, at 90 minutes, λJG16C1 16% of the mixture at mixing
  proportion of λJG16C1 among recovered bacteriophage (peak): 60%
[1]; culture exposed to CB1954, at 125 minutes
  peak concentration of the λJG16C1: 3 x 10^7 per ml
[1]; culture exposed to CB1954, at 155 minutes
  concentration of total bacteriophages released into the medium: 7.2 x 10^7 per ml
[1]; culture exposed to CB1954, at early times
  concentration of total bacteriophages released into the medium: 6 x 10^5 per ml
[1]; culture exposed to CB1954, end of the timecourse
  colony number: ~ 360
[1]; culture exposed to CB1954, start of the timecourse
  colony number: 3
[1]; first ~60 minutes of exposure to CB1954
  level of bacteriophage above background: no increase
[2]
  turnover rate kcat: 6 s⁻¹
[2]; read-out: Michaelis constant KM
  Km: 860 µM
[3]
  sensitisation of tumour cell lines to the prodrug: can sensitise
[4]
  survival of mice: Significantly increased survival and apparent cures

## NC(=O)c1cc(N(CCCl)CCCl)c([N+](=O)[O-])cc1[N+](=O)[O-] [SN 23862]
[5]
  activation by mammalian DT diaphorases: not activated
